Results published in patent US6303603A, “3-oxo-2(H)-1,2,4-triazine derivatives as ligands of 5 HT1A receptors” (Pierre Fabre Medicament, priority 1997, dated 2001).
Structures can show the parent of a compound that is named as a salt. Where two headings read alike, the source gives them in different places. Blank lines part the entries; values can stand above or below the molecule they belong to.

Legend:
[1] = biological target: T1, 5-HT1A (Rattus norvegicus, UniProt P19327); test: Serotoninergic (5-HT) syndrome; type: in vivo, male rat (Sprague-Dawley); set-up: carried out with the male rat (Sprague-Dawley); from tissue; host or cells: whole living rat (in vivo); settings: po, male rat
T1 sequence (P19327 1-422): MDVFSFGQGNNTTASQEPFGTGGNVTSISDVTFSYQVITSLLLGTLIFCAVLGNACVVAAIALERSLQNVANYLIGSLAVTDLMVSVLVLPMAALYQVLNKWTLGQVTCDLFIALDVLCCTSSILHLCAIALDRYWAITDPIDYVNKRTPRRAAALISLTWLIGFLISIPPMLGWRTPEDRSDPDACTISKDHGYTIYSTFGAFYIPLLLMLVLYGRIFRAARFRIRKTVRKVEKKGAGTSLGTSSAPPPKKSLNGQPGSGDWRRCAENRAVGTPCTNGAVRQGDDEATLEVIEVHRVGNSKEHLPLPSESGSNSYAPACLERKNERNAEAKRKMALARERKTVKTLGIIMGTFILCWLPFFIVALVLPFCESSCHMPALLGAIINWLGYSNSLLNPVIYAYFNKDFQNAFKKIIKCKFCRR
Procedure: The central activity of the compounds of the invention was evaluated by their ability to provoke the 5-HT syndrome, which is characterized by:
an alternating bending and stretching of the forepaws (reciprocal fore-paw treading: FPT)
the retraction of the lower lip (lower lip on: LLR)
a position or the ventral surface of the animal is incobtact with the ground and the hind paws extended (flat body posture: FBP).
The experiments on the evaluation of the 5-HT syndrome are carried out with the male rat (Sprague-Dawley) according to the technique described by F. C. Colpaert et al. (Drug. Dev. Res, 26, 21-48, 1992) and M. S. Kleven et al. (J.P.E.T., 282, 747-759, 1997).

[2] = biological target: T1, 5-HT1A; test: Binding to the 5-HT1A receptor (displacement of [3H]8-OH-DPAT); set-up: Brains from male Sprague-Dawley 180-200 g rats; tissue Iffa Credo, France (animals); host or cells: rat brain cortex; species or system rat (male Sprague-Dawley), brain cortex; settings: for Ki: read-out: pKi 5-HT1A (converted)
Procedure: (§1) Binding to the 5-HT1A, D2 dopaminergic and α1-adrenergic receptors:
(§2) Brains from male Sprague-Dawley 180-200 g rats [Ico: OFA SD (I.O.P.S. Caw); Iffa Credo, France], maintained at -70° C., were used in all the studies.
(§3) The affinity of the products for the various receptors was determined by displacement of radioactive ligands under the conditions summarized in Table 1.
(§4) The reaction is halted by rapid filtration, under vacuum, through Whatman GF/B filters and the tubes are rinsed with 2×5 ml of Tris-HCl 50 mM, pH 7.4, buffer at 25° C. The radioactivity collected on the filter is analyzed by liquid scintillation after addition of 4 ml of liquid scintillant (Emulsifier Safe, Packard). All the experiments are carried out in triplicate.
(§5) The inhibition constants (Ki) of the products are estimated from the displacement experimentations by using the EBDA (equilibrium binding data analysis) Radlig version 4 nonlinear regression program (Biosoft, Cambridge, UK; McPherson, 1985).
(§6) The pKi (-log Ki) values are given in the form of the mean ± SEM of at least 3 experimentations (Table 2).

[3] = biological target: α1-adrenergic receptor; test: Binding to the α1-adrenergic receptor (displacement of [3H]Prazosin); set-up: species or system rat (male Sprague-Dawley), brain cortex; settings: rat cortex, 30 min, 23 °C, mean of at least 3 experimentations
Procedure: as §1, §2, §3, §4, §5, §6
Experimental conditions for binding to the receptors
[^3 H] ligand Incubation binding
Concen- Tissue Temper- Concen-
Binding KD tration Concen- Time ature tration
site (nM) (nM) Type tration (min) (° C.) Product (μM)
Buffers: (A) Tris HCl 50 mM pH 7.4, pargyline 10 μM, CaCl2 4 mM,
0.1% ascorbic acid; (B) Tris HCl 50 mM pH 7.4, NaCl 120 mM, KCl 5 mM; (C)

[4] = biological target: T2, D2 dopaminergic receptor (Rattus norvegicus, UniProt P61169); test: Binding to the D2 dopaminergic receptor (displacement of [3H]YM-09151-2); set-up: species or system rat (male Sprague-Dawley), brain striatum; settings: read-out: pKi D2 (converted)
T2 construct: Brains from male Sprague-Dawley 180-200 g rats; tissue Iffa Credo, France (animals); host or cells: rat brain striatum
T2 sequence (P61169 whole entry): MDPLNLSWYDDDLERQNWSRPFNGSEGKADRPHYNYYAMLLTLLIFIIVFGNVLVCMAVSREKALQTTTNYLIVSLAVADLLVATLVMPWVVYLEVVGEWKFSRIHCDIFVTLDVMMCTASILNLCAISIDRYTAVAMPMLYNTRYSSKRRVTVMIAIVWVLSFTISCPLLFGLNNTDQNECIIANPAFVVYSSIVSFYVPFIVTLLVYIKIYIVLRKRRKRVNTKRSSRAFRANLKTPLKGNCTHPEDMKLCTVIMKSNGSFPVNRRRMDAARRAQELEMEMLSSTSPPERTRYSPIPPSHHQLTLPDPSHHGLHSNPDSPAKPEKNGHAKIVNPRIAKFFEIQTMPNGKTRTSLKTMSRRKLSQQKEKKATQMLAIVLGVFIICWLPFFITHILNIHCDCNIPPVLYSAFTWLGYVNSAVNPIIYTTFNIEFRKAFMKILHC
Procedure: as §1, §2, §3, §4, §5, §6

[5] = Antidepressant activity: forced swimming test; type: in vivo; settings: po, percentage of animals with significant decrease vs control (p<0.05), read-out: ED50 (decrease in the immobility time)
[6] = flat body posture (FBP), read-out: 5-HT syndrome ED50 FBP
[7] = lower lip retraction (LLR), read-out: 5-HT syndrome ED50 LLR
[8] = reciprocal fore-paw treading (FPT), read-out: 5-HT syndrome ED50 FPT

Molecule: 5-[4-[4-(5-Chloro-2-methoxyphenyl)-piperazin-1-yl]butoxy]-2-methyl-2H- [1,2,4]triazin-3-one fumarate [Compound 17]
- 5-HT syndrome ED50 FBP ([1]; flat body posture (FBP)): 0.31 mg/kg
- 5-HT syndrome ED50 LLR ([1]; lower lip retraction (LLR)): 0.08 mg/kg
- 5-HT syndrome ED50 FPT ([1]; reciprocal fore-paw treading (FPT)): 0.31 mg/kg
- pKi 5-HT1A ([2]; [3H]8-OH-DPAT, rat cortex, 30 min, 23 °C, mean of at least 3 experimentations): 9.89

- pKi α1 [3]: 6.35
- Ki [4]: 2880 nM
- ED50 [1, 6]: 0.08 mg/kg
- ED50 [1, 7]: < 0.04 mg/kg
- ED50 [1, 8]: 0.08 mg/kg
- Ki [2]: 0.525 nM
Molecule: Cn1ncc(OCC[C@H]2CC[C@@H]3CN(c4ncccn4)CCN3C2)nc1=O (relative stereo) [Compound 24, trans-2-Methyl-5-[2-(2-pyrimidin-2-yl-octahydropyrido[1,2-a]pyrazin-7-yl)ethoxy]-2H-[1,2,4]triazin-3-one]
- ED50 [5]: 0.04 mg/kg

- ED50 [1, 6]: < 0.04 mg/kg
- ED50 [1, 7]: < 0.04 mg/kg
- ED50 [1, 8]: 0.04 mg/kg
- Ki [2]: 0.245 nM
Molecule: Cn1ncc(OCC[C@H]2CC[C@@H]3CN(c4ncccn4)CCN3C2)nc1=O (single isomer, unassigned) [Compound 26]
- ED50 [5]: 0.04 mg/kg

Molecule: O=C1CC2(CCCC2)CC(=O)N1CCCCN1CCN(c2ncccn2)CC1 [Buspirone, reference compound]
- pKi α1 [3]: 6.19
- ED50 [5]: > 160 mg/kg
- ED50 [1, 8]: > 40 mg/kg

Molecule: Cn1ncc(OCCCCN2CCN(c3ncccn3)CC2)nc1=O [Compound 1, 2-Methyl-5-[4-(4-pyrimidin-2-yl-piperazin-1-yl)butoxy]-2H-[1,2,4]triazin-3-one]
- pKi α1 [3]: 6.25
- Ki [4]: 1580 nM
- ED50 [1, 6]: 0.08 mg/kg
- ED50 [1, 7]: 0.02 mg/kg
- ED50 [1, 8]: 0.08 mg/kg
- Ki [2]: 0.676 nM

Molecule: Cc1ccnc(N2CCN(CCCCOc3cnn(C)c(=O)n3)CC2)n1.O=C(O)/C=C/C(=O)O [Compound 2, 2-Methyl-5-[4-[4-(4-methylpyrimidin-2-yl)piperazin-1-yl]butoxy]-2H-[1,2,4]triazin-3-one fumarate]
- pKi α1 [3]: 6.11
- Ki [4]: 1740 nM
- ED50 [5]: 0.04 mg/kg
- ED50 [1, 6]: 0.08 mg/kg
- ED50 [1, 7]: 0.02 mg/kg
- ED50 [1, 8]: 0.08 mg/kg
- Ki [2]: 0.269 nM

Molecule: Cc1cc(C)nc(N2CCN(CCCCOc3cnn(C)c(=O)n3)CC2)n1.O=C(O)/C=C/C(=O)O [Compound 3, 5-[4-[4-(4,6-Dimethylpyrimidin-2-yl)piperazin-1-yl]butoxy]-2-methyl-2H-[1,2,4]triazin-3-one fumarate]
- pKi α1 [3]: 6.01
- Ki [4]: 1120 nM
- ED50 [1, 6]: 0.08 mg/kg
- ED50 [1, 7]: 0.08 mg/kg
- ED50 [1, 8]: 0.08 mg/kg
- Ki [2]: 0.275 nM

Molecule: COc1ccnc(N2CCN(CCCCOc3cnn(C)c(=O)n3)CC2)n1 [Compound 4, 5-[4-[4-(4-Methoxypyrimnidin-2-yl)piperazin-1-yl]butoxy]-2-methyl-2H-[1,2,4]triazin-3-one fumarate]
- pKi α1 [3]: 6.74
- Ki [4]: 2240 nM
- ED50 [1, 6]: 0.08 mg/kg
- ED50 [1, 7]: < 0.04 mg/kg
- ED50 [1, 8]: 0.08 mg/kg
- Ki [2]: 0.138 nM

Molecule: Cn1ncc(OCCCCN2CCN(c3nccc(Cl)n3)CC2)nc1=O [Compound 6, 5-[4-[4-(4-Chloropyrimidin-2-yl)piperazin-1-yl]butoxy]-2-methyl-2H-[1,2,4]triazin-3-one]
- pKi α1 [3]: 6.25
- Ki [4]: 1700 nM
- ED50 [5]: 0.63 mg/kg
- ED50 [1, 6]: 0.08 mg/kg
- ED50 [1, 7]: 0.08 mg/kg
- ED50 [1, 8]: 0.08 mg/kg
- Ki [2]: 0.209 nM

Molecule: Cn1ncc(OCCCCN2CCN(c3ncc(F)cn3)CC2)nc1=O [Compound 7, 5-[4-[4-(5-Fluoropyrimidin-2-yl)piperazin-1-yl]butoxy]-2-methyl-2H-[1,2,4]triazin-3-one]
- ED50 [1, 6]: 0.31 mg/kg
- ED50 [1, 7]: 0.08 mg/kg
- ED50 [1, 8]: 0.31 mg/kg
- Ki [2]: 0.912 nM

Molecule: COc1cccnc1N1CCN(CCCCOc2cnn(C)c(=O)n2)CC1 [Compound 15, 5-[4-[4-(3-Methoxypyridin-2-yl)piperazin-1-yl]butoxy]-2-methyl-2H-[1,2,4]triazin-3-one fumarate]
- Ki [2]: 0.263 nM

Molecule: Cn1ncc(OCCCCN2CCN(c3cccc(Cl)c3)CC2)nc1=O [Compound 16, 5-[4-[4-(3-Chlorophenyl)piperazin-1-yl]Butoxy]-2-methyl-2H-[1,2,4]Triazin-3-one fumarate]
- Ki [2]: 0.0759 nM

Molecule: COc1ccc(Cl)cc1N1CCN(CCCCOc2cnn(C)c(=O)n2)CC1 [Compound 19, 5-[4-[4-(5-Chloro-2-methoxyphenyl)-piperazin-1-yl]butoxyl-2-methyl-2H-[1,2,4]triazin-3-one fumarate]
- pKi α1 [3]: 8.21
- Ki [4]: 15.1 nM
- Ki [2]: 0.309 nM

Molecule: Cn1ncc(OCCCCNCC2COc3ccccc3O2)nc1=O (stereo not shown) [Compound 20, 5-[4-((2,3-Dihydrobenzo[1,4]dioxin-2-ylmethyl)amino]butoxyl-2-methyl-2H-[1,2,4]triazin-3-one fumarate]
- pKi α1 [3]: 7.65
- Ki [4]: 66.1 nM
- ED50 [1, 6]: 0.08 mg/kg
- ED50 [1, 7]: < 0.04 mg/kg
- ED50 [1, 8]: 0.31 mg/kg
- Ki [2]: 0.107 nM

Molecule: Cn1ncc(OCCCCNC[C@@H]2COc3ccccc3O2)nc1=O [Compound 21, (R)-5-[4-[(2,3-Dihydrobenzo[1,4]dioxin-2-ylmethyl)amino]butoxy)-2-methyl-2H-[1,2,4]triazin-3-one fumarate]
- Ki [2]: 0.331 nM

Molecule: Cn1ncc(OCCCCNC[C@H]2COc3ccccc3O2)nc1=O [Compound 22, (S)-5-[4-[(2,3-Dihydrobenzo[1,4]dioxin-2-ylmethyl)amino]butoxy]-2-methyl-2H-[1,2,4]triazin-3-one fumarate]
- Ki [2]: 0.0339 nM

- pKi α1 [3]: 6.50
Molecule: O=C(NCCN1CCN(c2cccc3c2OC[C@H](CO)O3)CC1)c1ccc(F)cc1 [Flesinoxan, reference compound]
- ED50 [5]: 1.25 mg/kg
